{"source": "patent US20050020665A1", "about": "“Pharmaceutical composition for treating multiple sclerosis” (priority 2001, published 2005)", "key": {"[1]": {"tested_on": "experimental allergic encephalomyelitis (EAE)", "conditions": "cited from earlier work"}, "MS patients [2]": {"tested_on": "MS patients", "conditions": "cited from earlier work"}, "MS patients [3]": {"tested_on": "MS patients", "conditions": "cited from earlier work", "remark": "listed apart in the source"}, "[4]": {"tested_on": "inflammatory reactions of MS in the animal model", "conditions": "cited from earlier work"}, "[5]": {"tested_on": "patients having clinically active MS", "assay": "treatment trial of MS patients with zileuton (Zyflo Filmtab), three years, with brain nuclear magnetic resonance using Magnevist", "type": "in vivo, humans", "description": "15 patients having clinically active MS were treated with zileuton in a treatment trial. 15 MS patients without this treatment served as a control. One tablet of Zyflo™Filmtab® was administered to each four times a day."}, "[6]": {"conditions": "15 MS patients, one Zyflo Filmtab tablet four times a day, three years, compared with 15 MS patients without this treatment"}}, "note": "Like-named read-outs stand apart in the source and are kept apart here.", "data": [{"compound": "Cn1cnc([N+](=O)[O-])c1Sc1ncnc2[nH]cnc12", "note": "[azothioprin]", "values": [{"measurement": "effect in the EAE animal test", "setting": "[1]", "value": "showed promising indications"}, {"measurement": "effect in the treatment of MS patients", "setting": "MS patients [2]", "value": "not convincing"}]}, {"compound": "O=C(O)c1cc(/N=N/c2ccc(S(=O)(=O)Nc3ccccn3)cc2)ccc1O", "note": "[azulfidine]", "values": [{"measurement": "effect of treatment in MS patients", "setting": "MS patients [3]; first 18 months of treatment, double blind study", "value": "exceptionally beneficial effect could be proven"}, {"measurement": "effect of treatment in MS patients", "setting": "MS patients [3]; three years after the end of the study", "value": "this effect could no longer be proven"}, {"measurement": "effect in the animal model (suppression of inflammatory reactions of MS)", "setting": "[4]", "value": "successful in the animal model"}]}, {"compound": "CC(c1cc2ccccc2s1)N(O)C(N)=O", "note": "(centres unmarked) [zileuton, 1-(1-benzo[b]thien-2-ylethyl)-1-hydroxy urea]", "values": [{"measurement": "chronic progression", "setting": "[5]; [6]", "value": "significantly decreased"}, {"measurement": "frequency of attacks", "setting": "[5]; [6]", "value": "significantly decreased"}, {"measurement": "new or acute centres of inflammation absorbing the contrast agent (brain nuclear magnetic resonance)", "setting": "[5]; every six months, contrast agent Magnevist", "value": "No new or acute centres absorbing the contrast agent could be determined"}]}]}
